Source: patent US20230047825A1, “ANTIMICROBIAL PEPTIDES” (priority 2019, published 2023)
In brackets after ≈: the same amount, converted by molar mass. Like-named read-outs stand apart in the source and are kept apart here. Each block holds one molecule with its values, some of them ahead of it. Where a SMILES comes first, the peptide text is derived from it.

Columns and labels:
[1] = system: Klebsiella pneumoniae NCTC 13368; format: cell-based; conditions: for MIC, Stability in serum (MH) / MIC on initial panels / MIC: in µg/mL; for MIC on initial panels: medium and unit not given
Klebsiella pneumoniae M6 = format: cell-based; conditions: for MIC on initial panels: medium and unit not given
[2] = system: Acinetobacter baumannii ATCC 17978; format: cell-based; conditions: in µg/mL; for MIC / MIC on initial panels: AB17978; for MIC on initial panels: medium and unit not given; for MIC, Stability in serum (MH): Ab17978
[3] = system: Pseudomonas aeruginosa NCTC 13437; assay: Antibacterial activity assay (broth microdilution MIC); format: cell-based; conditions: PA13437, in µg/mL; for MIC on initial panels: medium and unit not given
[4] = system: Escherichia coli NCTC 12923; format: cell-based; conditions: EC12923; for MIC / MIC on initial panels: in µg/mL; for MIC on initial panels: medium and unit not given
[5] = system: MS Staphylococcus aureus ATCC 9144; format: cell-based; conditions: for MIC on initial panels / MIC: MSSA9144; for MIC on initial panels: medium and unit inferred; for MIC: untitled table, medium/unit not given, values match RPMI of Table 2, in µg/mL
[6] = system: EMR Staphylococcus aureus-15 (EMRSA-15); format: cell-based; conditions: for MIC on initial panels / MIC: EMRSA15; for MIC on initial panels: medium and unit inferred; for MIC: untitled table, medium/unit inferred, values match RPMI of Table 2
[7] = system: EMR Staphylococcus aureus-16 (EMRSA-16); format: cell-based; conditions: EMRSA16; for MIC on initial panels: medium and unit not given, in µg/mL; for MIC: untitled table, medium/unit inferred, values match RPMI of Table 2
[8] = system: VS Enterococcus faecalis NCTC 775; assay: Antibacterial activity assay (broth microdilution MIC); format: cell-based; conditions: for MIC, Peptide concentration: Mueller-Hinton broth; for MIC on initial panels: VSE775, medium and unit not given, in µg/mL
human red blood cells = assay: Haemolysis assay; conditions: red cells of human, 1 h
Method: Haemolysis assay. Haemolysis was tested by incubating titrations of AMPs in PBS with freshly collected human red blood cells for 1 hour at 37 C. Control wells were treated with 0.1% Triton-X-100 to ensure complete lysis, or PBS-only to represent no lysis. Samples were spun down to remove non-lysed cells and the OD^550 of the supernatant was measured using a Clariostar plate reader. The percentage of haemolysis was calculated as % haemolysis=(AP−AB)/(AC−AB)×100, where AP is the absorbance value for a known peptide concentration, AC is the absorbance of the 0.1% Triton-X-100 control, AB is the absorbance of the PBS control. Data presented are averages and standard error from three biological replicate experiments.
Methods: The natural AMP (termed AMP1) was modified to produce synthetic variants, AMPs 1a, 2a, 2b, 3a and 3b. Minimum inhibitory concentrations (MICs) were determined using the microbroth dilution assay with Mueller Hinton broth (MHB) or RPMI (with 5% FBS) and stability in serum was tested by conducting MICs in MHB containing 10% FBS. Synergy experiments were performed following a checkerboard protocol. Cytotoxicity was tested against HEK293 and HeLa immortalised human cell-lines using the XTT viability stain and by quantifying haemolysis of human red blood cells. Patch clamp analysis was performed using the Port-a-Patch® automated patch-clamp system on DPhPE/DPhPG (model for a Gram-negative plasma membrane) or DPhPG (Gram-positive) model membranes challenged with peptide. The murine lung infection model was performed using the agar bead model with Staphylococcus aureus strain NCTC 13616 (EMRSA-15).

[9] = Electrophysiology (Port-a-Patch patch-clamp) on model membranes
Text: The depth of insertion into each membrane is shown as the Z-position for each residue, averaged over all four peptides, relative to the phosphate group plane in the upper POPE/POPG (A/E/I) or POPG (C/G/K) bilayer leaflet in six MD simulations. Positive or negative values indicate the peptides are below or above the phosphate group. Representative current traces illustrating membrane activity when DPhPE/DPhPG (B/F/J) or DPhPG (D/H/L) model membranes are challenged with each peptide at the indicated concentration (lowest concentration that induced detectable activity). Data is for pleurocidin (A-D), pleurocidin-KR (E-H) and pleurocidin-VA (I-L). Membrane disordering by each peptide in mixed POPE/POPG bilayers is shown with data obtained from ^2H solid-state NMR (M/N) or from MD simulations where order parameters are calculated for all lipids within 4 Å of a peptide (O/P).
Molecular dynamics simulations. Simulations were carried out on either the ARCHER Cray XC30 supercomputer, or Dell Precision quad core T3400 or T3500 workstations equipped with a 1 kW Power supply (PSU) and two NVIDA PNY GeForce GTX570 or GTX580 graphics cards using Gromacs.^53 The CHARMM36 all-atom force field was used in all simulations^54-56. All simulations were run, as described previously^20 and for a total of 200 nanoseconds and repeated twice, with peptides inserted at different positions and orientations, giving a total of approximately 4.0 μs simulation. Liposome preparation and circular dichroism (CD) spectroscopy. Small unilamellar vesicles (SUV) were produced and far-UV spectra of the peptides obtained as described previously^20 using a Chirascan Plus spectrometer (Applied Photophysics, Leatherhead, UK) with samples maintained at 310 K. For liposome experiments the lipid concentration was 5 mM and a peptide to lipid molar ratio of 1:100 was maintained while the SDS micelles concentration was 20 mM with 200 μM peptide. Electrophysiology experiments (Patch-clamp). Patch clamp experiments were performed using the Port-a-Patch® (Nanion Technologies GmbH, Munich, Germany) with giant unilamellar vesicles (GUVs) composed of DPhPE/DPhPG (60:40, mol:mol) or DPhPG prepared by the electroformation method using the Nanion Vesicle Prep Pro setup (Nanion Technologies GmbH, Munich, Germany) as described previously.^20
Synergy experiments were performed following a checkerboard protocol.

[10] = KP13368, Serum (10% fetal bovine serum)
[11] = KP13368, untitled table, medium/unit not given, values match RPMI of Table 2
[12] = Klebsiella pneumoniae KP13368, (MH)
[13] = Klebsiella pneumoniae KP13368, (RPMI)
[14] = untitled table, medium/unit not given, values match RPMI of Table 2, in µg/mL
[15] = untitled table, medium/unit not given, values match RPMI of Table 2

- MIC, Stability in serum (MH) ([1]; KP13368, No serum): 4
- MIC, Stability in serum (MH) [1, 10]: 4
- MIC on initial panels ([1]; KP13368): 4
- MIC [1, 11]: 8-16
- MIC [1, 12]: 4
- MIC [1, 13]: 8-16
- MIC (Klebsiella pneumoniae M6; (MH), in µg/mL): 4
- MIC (Klebsiella pneumoniae M6; (RPMI), in µg/mL): 4-8
- MIC, Stability in serum (MH) (Klebsiella pneumoniae M6; No serum): 4 µg/mL (≈ 1.48 µM)
- MIC, Stability in serum (MH) (Klebsiella pneumoniae M6; Serum (10% fetal bovine serum)): 4 µg/mL (≈ 1.48 µM)
- MIC on initial panels (Klebsiella pneumoniae M6; in µg/mL): 4
- MIC (Klebsiella pneumoniae M6; [14]): 4-8
- MIC ([2]; (MH)): 1
- MIC ([2]; (RPMI)): 8
- MIC on initial panels [2]: 1
- MIC [2, 15]: 8
- MIC, Stability in serum (MH) ([2]; No serum): 1
- MIC, Stability in serum (MH) ([2]; Serum (10% fetal bovine serum)): 0.5
- MIC ([3]; (MH)): 8
- MIC ([3]; (RPMI)): 16-32
- MIC, Stability in serum (MH) ([3]; No serum): 8
- MIC, Stability in serum (MH) ([3]; Serum (10% fetal bovine serum)): 16
- MIC on initial panels [3]: 8
- MIC [3, 15]: 16-32
- MIC ([4]; (MH)): 1
- MIC ([4]; (RPMI)): 2-4
- MIC, Stability in serum (MH) ([4]; No serum): 1 µg/mL (≈ 0.369 µM)
- MIC, Stability in serum (MH) ([4]; Serum (10% fetal bovine serum)): 0.5 µg/mL (≈ 0.184 µM)
- MIC on initial panels [4]: 1
- MIC [4, 15]: 2-4
- MIC on initial panels [5]: 2 µg/mL (≈ 0.738 µM)
- MIC [5]: 0.5
- MIC, Peptide concentration ([6]; EMR -15 (EMRSA-15)): 1 µg/mL (≈ 0.369 µM)
- MIC on initial panels [6]: 16 µg/mL (≈ 5.9 µM)
- MIC [6]: 1 µg/mL (≈ 0.369 µM)
- MIC, Peptide concentration ([6]; Mueller-Hinton broth): 16 µg/mL (≈ 5.9 µM)
- MIC on initial panels [7]: 16
- MIC [7]: 1 µg/mL (≈ 0.369 µM)
- MIC, Peptide concentration [8]: 32 (NG) μg/ml
- MIC on initial panels [8]: 32
Compound: CC(C)C[C@@H](NC(=O)[C@@H](Cc1ccc(O)cc1)NC(=O)[C@@H](Cc1c[nH]cn1)NC(=O)[C@H](NC(=O)[C@@H](CC(C)C)NC(=O)[C@@H](C)NC(=O)[C@@H](C)NC(=O)[C@@H](CCCCN)NC(=O)CNC(=O)[C@H](NC(=O)[C@@H](Cc1c[nH]cn1)NC(=O)[C@@H](CCCCN)NC(=O)CNC(=O)[C@H](NC(=O)[C@@H](Cc1c[nH]cn1)NC(=O)[C@@H](C)NC(=O)[C@@H](C)NC(=O)[C@@H](CCCCN)NC(=O)[C@@H](CCCCN)NC(=O)[C@@H](Cc1ccccc1)NC(=O)[C@@H](Cc1ccccc1)NC(=O)[C@@H](CO)NC(=O)CNC(=O)[C@@H](Cc1c[nH]c2ccccc12)NC(=O)CN)C(C)C)C(C)C)[C@H](C)O)C(N)=O [D-pleurocidin] (HELM PEPTIDE1{G.[dW].G.[dS].[dF].[dF].[dK].[dK].[dA].[dA].[dH].[dV].G.[dK].[dH].[dV].G.[dK].[dA].[dA].[dL].[dT].[dH].[dY].[dL].[am]}$$$$V2.0; N-terminus assumed)
- Toxicity HC50, Peptide concentration (human red blood cells): >400 µg/mL

- MIC, Stability in serum (MH) ([1]; KP13368, No serum): 4
- MIC, Stability in serum (MH) [1, 10]: 8
- MIC on initial panels ([1]; KP13368): 4-8
- MIC [1, 11]: 32
- MIC [1, 12]: 4-8
- MIC [1, 13]: 32
- MIC, Peptide concentration ([1]; NCTC 13368): 3 µg/mL (≈ 1.11 µM)
- MIC (Klebsiella pneumoniae M6; (MH), in µg/mL): 4
- MIC (Klebsiella pneumoniae M6; (RPMI), in µg/mL): 32
- MIC, Stability in serum (MH) (Klebsiella pneumoniae M6; No serum): 4 µg/mL (≈ 1.48 µM)
- MIC, Stability in serum (MH) (Klebsiella pneumoniae M6; Serum (10% fetal bovine serum)): 8 µg/mL (≈ 2.95 µM)
- MIC on initial panels (Klebsiella pneumoniae M6; in µg/mL): 4
- MIC (Klebsiella pneumoniae M6; [14]): 32
- MIC ([2]; (MH)): 1-2
- MIC ([2]; (RPMI)): 8
- MIC on initial panels [2]: 1-2
- MIC [2, 15]: 8
- MIC, Stability in serum (MH) ([2]; No serum): 2
- MIC, Stability in serum (MH) ([2]; Serum (10% fetal bovine serum)): 2
- MIC ([3]; (MH)): 16-32
- MIC ([3]; (RPMI)): >32
- MIC, Stability in serum (MH) ([3]; No serum): 16
- MIC, Stability in serum (MH) ([3]; Serum (10% fetal bovine serum)): 32
- MIC on initial panels [3]: 16-32
- MIC [3, 15]: >32
- MIC ([4]; (MH)): 1-2
- MIC ([4]; (RPMI)): 16
- MIC, Stability in serum (MH) ([4]; No serum): 2 µg/mL (≈ 0.738 µM)
- MIC, Stability in serum (MH) ([4]; Serum (10% fetal bovine serum)): 1 µg/mL (≈ 0.369 µM)
- MIC on initial panels [4]: 1-2
- MIC [4, 15]: 16
- MIC, Peptide concentration ([5]; ATCC 9144): 2 µg/mL (≈ 0.738 µM)
- MIC on initial panels [5]: 4 µg/mL (≈ 1.48 µM)
- MIC [5]: 2
- MIC on initial panels [6]: 16 µg/mL (≈ 5.9 µM)
- MIC [6]: 4 µg/mL (≈ 1.48 µM)
- MIC on initial panels [7]: 16
- MIC [7]: 4 µg/mL (≈ 1.48 µM)
- MIC, Peptide concentration [8]: 64 (NG) μg/ml
- MIC on initial panels [8]: 64
Compound: CC(C)C[C@H](NC(=O)[C@H](Cc1ccc(O)cc1)NC(=O)[C@H](Cc1c[nH]cn1)NC(=O)[C@@H](NC(=O)[C@H](CC(C)C)NC(=O)[C@H](C)NC(=O)[C@H](C)NC(=O)[C@H](CCCCN)NC(=O)CNC(=O)[C@@H](NC(=O)[C@H](Cc1c[nH]cn1)NC(=O)[C@H](CCCCN)NC(=O)CNC(=O)[C@@H](NC(=O)[C@H](Cc1c[nH]cn1)NC(=O)[C@H](C)NC(=O)[C@H](C)NC(=O)[C@H](CCCCN)NC(=O)[C@H](CCCCN)NC(=O)[C@H](Cc1ccccc1)NC(=O)[C@H](Cc1ccccc1)NC(=O)[C@H](CO)NC(=O)CNC(=O)[C@H](Cc1c[nH]c2ccccc12)NC(=O)CN)C(C)C)C(C)C)[C@@H](C)O)C(N)=O [Pleurocidin, reference compound] (H-GWGSFFKKAAHVGKHVGKAALTHYL-NH2; N-terminus assumed)
- Toxicity HC50, Peptide concentration (human red blood cells): ~400 µg/mL
- Peptide concentration necessary to start membrane activity ([9]; DPhPE/DPhPG): 10 µM
- Peptide concentration necessary to start membrane activity ([9]; DPhPG): 5 µM
